# According to publication PMC11425263, “Otilonium Bromide Exhibits Potent Antifungal Effects by Blocking Ergosterol Plasma Membrane Localization and Triggering Cytotoxic Autophagy in Candida Albicans” (Advanced Science, 2024):
# Target: T1, Sec31 (Candida albicans, UniProt Q5AAU3)
# T1 construct: gene PGA63; full-length with N-terminal GFP tag, expressed in C. albicans, tested in whole cell lysate; COPII coat component
# T1 sequence (Q5AAU3 1-1265): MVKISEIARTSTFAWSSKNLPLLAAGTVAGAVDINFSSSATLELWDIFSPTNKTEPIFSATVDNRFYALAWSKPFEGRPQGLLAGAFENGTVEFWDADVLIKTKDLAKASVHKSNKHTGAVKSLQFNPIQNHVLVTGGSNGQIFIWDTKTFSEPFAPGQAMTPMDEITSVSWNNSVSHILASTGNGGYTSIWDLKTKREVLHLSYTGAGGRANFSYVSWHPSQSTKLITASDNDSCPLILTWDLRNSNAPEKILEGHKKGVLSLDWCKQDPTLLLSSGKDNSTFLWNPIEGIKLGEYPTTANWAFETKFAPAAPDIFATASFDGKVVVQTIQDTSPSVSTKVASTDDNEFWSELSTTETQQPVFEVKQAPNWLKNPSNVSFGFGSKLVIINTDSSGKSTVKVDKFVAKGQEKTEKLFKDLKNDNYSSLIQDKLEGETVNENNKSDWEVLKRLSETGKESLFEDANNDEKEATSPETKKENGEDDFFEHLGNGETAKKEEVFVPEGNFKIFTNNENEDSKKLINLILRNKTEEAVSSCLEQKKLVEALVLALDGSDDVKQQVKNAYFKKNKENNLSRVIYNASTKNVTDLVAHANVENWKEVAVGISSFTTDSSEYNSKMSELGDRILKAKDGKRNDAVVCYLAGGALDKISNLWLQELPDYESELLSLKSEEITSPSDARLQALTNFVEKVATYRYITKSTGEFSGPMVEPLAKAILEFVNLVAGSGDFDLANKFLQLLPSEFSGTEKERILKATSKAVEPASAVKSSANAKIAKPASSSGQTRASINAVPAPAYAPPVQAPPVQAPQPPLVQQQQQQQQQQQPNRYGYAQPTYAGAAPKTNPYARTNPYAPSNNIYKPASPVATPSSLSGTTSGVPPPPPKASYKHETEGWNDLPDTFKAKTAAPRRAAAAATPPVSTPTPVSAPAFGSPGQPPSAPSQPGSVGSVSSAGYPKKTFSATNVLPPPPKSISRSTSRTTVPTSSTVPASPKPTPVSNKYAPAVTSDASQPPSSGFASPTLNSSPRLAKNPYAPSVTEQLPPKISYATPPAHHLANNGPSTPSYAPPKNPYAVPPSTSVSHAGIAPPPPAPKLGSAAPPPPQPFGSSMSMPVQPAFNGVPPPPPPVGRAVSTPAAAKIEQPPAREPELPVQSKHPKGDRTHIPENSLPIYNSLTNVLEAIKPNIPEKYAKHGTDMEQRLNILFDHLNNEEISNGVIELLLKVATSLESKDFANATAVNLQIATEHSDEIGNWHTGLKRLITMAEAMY
# Test: DARTS, thermolysin protection, anti-GFP western blot
# Type: biochemical
# Conditions: GFP-Sec31 cell lysate; OTB 3.125 to 12.5 µg/mL, 1 h room temperature; thermolysin 15 min; beta-tubulin as control
smiles,measurement,value
CCCCCCCCOc1ccccc1C(=O)Nc1ccc(C(=O)OCC[N+](C)(CC)CC)cc1 [otilonium bromide],"DARTS, thermolysin protection, anti-GFP western blot",OTB effectively shielded Sec31 from degradation induced by thermolysin
